Consider seven molecules from patent US5430148A, “Antiproliferative quinazolines” (Agouron Pharmaceuticals, Inc., priority 1992, dated 1995).

Data set [1] deals with E. coli TS (thymidylate synthase) (Escherichia coli, UniProt P0A884). The data set can be described thus: Inhibition constants against 5,10-methylenetetrahydrofolate for thymidylate synthase, E. coli enzyme (tritium release). It is filed as biochemical. The method, then:
(§1) Determination of Inhibition Constants Against 5,10-Methylenetetrahydrofolate for the Enzyme Thymidylate Synthase
(§2) Inhibition constants, Ki, slope and Ki, intercept [W. W. Cleland, Biochim. Biophys. […] The cofactor was present as the variable substrate under conditions of saturating radiolabelled 2'-deoxyuridine 5-monophosphate (dUMP). […] Assays of human TS also contained 1-5 μg/mL bovine serum albumin to stabilize the protein. Reactions were initiated by the addition of enzyme and were carried out for 5 minutes at 24° C., and then quenched by the addition of charcoal (15 mg in 0.1 mL H2 O). The quenched samples were centrifuged at 10,000 rpm for 12-15 min at […] to remove unreacted dUMP which had bound to the charcoal, and 0.1 mL of the supernatant was counted by liquid scintillation in the presence of 5 mL ecolume to determine the release of tritium label from the 5-position of the dUMP. […] Experimental results were analyzed by EZ-FIT, a nonlinear regression analysis program (Perrella Scientific, Springfield, Pa.) which was used to fit all data points simultaneously to a mixed noncompetitive inhibition scheme.

The target of data set [2] is human TS (thymidylate synthase) (Homo sapiens, UniProt P04818). The data set can be described thus: Inhibition constants against 5,10-methylenetetrahydrofolate for thymidylate synthase, human enzyme (tritium release). It is filed as biochemical. Conditions: cofactor as variable substrate, pH 7.6, 24° C. The method, then:
as §1, §2

For data set [3], the system named is CCRF-CEM cells. In words: Inhibition of growth of tumor cells, CCRF-CEM human lymphoblastic leukemia (MTT). It is filed as cell-based. Conditions: for IC50: 5 days continuous exposure, MTT, read-out: Cell Culture IC50, CCRF-CEM. The method, then:
(§3) In Vitro Testing to Determine Inhibition of Growth of Tumor Cells
(§4) Growth was measured over 3 days (L1210) or 5 days (CCRF-CEM, GC3 /M TK^-) of continuous exposure to varying concentrations of each test compound, added 4 h. after initial cell plating, by the MTT-tetrazolium reduction assay of T. J. Mosmann [J. Immunol. Meth. […] Water insoluble derivatives were dissolved in DMSO and diluted to a final concentration of 0.5% solvent in cell cultures.

Data set [4] has as its system GC3/M TK- cells. The data set can be described thus: Inhibition of growth of tumor cells, thymidine kinase-deficient human colon adenocarcinoma GC3/M TK- (MTT). In kind it is cell-based. Conditions: for IC50: 5 days continuous exposure, MTT, read-out: Cell Culture IC50, GC3-M (TK-). The method, then: as §3, §4
The test system of data set [5] is L1210 murine leukemia cells. In words: Inhibition of growth of tumor cells, L1210 murine leukemia (MTT). In kind it is cell-based. As to conditions: for IC50: 3 days continuous exposure, MTT, read-out: Cell Culture IC50, L1210. The procedure: as §3, §4
In data set [6] the test system is ovarian, liver and breast cancer. As to conditions: literature; cited from earlier work.
For data set [7] the following is noted: literature; cited from earlier work.
The mark [8] stands for this setting: Ki Data, human thymidylate synthase.
Where [9] appears, read: read-out: Ki Data, human thymidylate synthase.

Like-named read-outs stand apart in the source and are kept apart here. Where only a bound is given, the exact number is not on record here.

E. coli TS (thymidylate synthase), sequence (P0A884 whole entry): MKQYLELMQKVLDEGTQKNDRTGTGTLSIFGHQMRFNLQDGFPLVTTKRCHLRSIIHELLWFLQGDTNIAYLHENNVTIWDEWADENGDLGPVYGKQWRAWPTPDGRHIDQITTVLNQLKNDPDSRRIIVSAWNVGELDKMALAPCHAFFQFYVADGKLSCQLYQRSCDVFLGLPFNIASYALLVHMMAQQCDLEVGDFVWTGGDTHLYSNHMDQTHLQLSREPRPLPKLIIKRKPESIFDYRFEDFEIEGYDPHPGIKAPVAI
human TS (thymidylate synthase), sequence (P04818 2-313 limits assumed): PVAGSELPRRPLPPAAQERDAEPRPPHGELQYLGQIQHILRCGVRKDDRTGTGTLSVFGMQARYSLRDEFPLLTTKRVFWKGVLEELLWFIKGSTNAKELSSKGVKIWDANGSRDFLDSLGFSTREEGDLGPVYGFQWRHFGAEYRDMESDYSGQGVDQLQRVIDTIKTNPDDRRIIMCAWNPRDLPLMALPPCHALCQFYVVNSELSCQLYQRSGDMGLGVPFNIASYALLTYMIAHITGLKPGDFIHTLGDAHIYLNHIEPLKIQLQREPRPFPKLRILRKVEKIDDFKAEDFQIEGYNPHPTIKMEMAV

As usually defined, the Ki is the dissociation constant of the complex between target and ligand, obtained from inhibition or displacement. A word on the IC50: it is the concentration needed to halve the response being measured. For the molecule `Cc1nc2ccc(C)c(Sc3ccncc3)c2c(=O)[nH]1` [Compound 8A, 3,4-Dihydro-2,6-dimethyl-4-oxo-5-(4-pyridylthio)-quinazoline], the results for the Ki in data set [1] and in data set [2] (setting [8]) were 0.89 ± 0.28 µM and 0.062 µM, respectively. Also, the IC50 in data set [3] (Homo sapiens, CCRF-CEM, 120 h) is 5.2 µM; in data set [4] (Homo sapiens, GC3/MTK-, 120 h) it was 6 µM; in data set [5] (Mus musculus, L1210, 72 h) it was 3.5 µM.

The term inhibition denotes the share of the control response that was lost under treatment. `COc1ccc(-c2cncn2Cc2cccc3nc(C)[nH]c(=O)c23)cc1` [Compound 33A]: the values for the Ki in data set [1] and in data set [2] (setting [9]) were 36 ± 1.5 µM and 47 ± 17 µM, respectively. For the same molecule, the IC50 in data set [3] (Homo sapiens, CCRF-CEM, 120 h) is 18 µM; in data set [4] (Homo sapiens, GC3/MTK-, 120 h), greater than 25 µM; in data set [5] (Mus musculus, L1210, 72 h), 25 µM. Moreover, testing at 25 µM in data set [4] (Homo sapiens, GC3/MTK-, 120 h, @ > 25 μM, 5 days) gave an inhibition of 20%.

For the molecule `C#CCN(Cc1ccc2nc(N)[nH]c(=O)c2c1)c1ccc(C(=O)N[C@@H](CCC(=O)O)C(=O)O)cc1` [10-propargyl-5,8-dideazafolic acid], the activity against cancer result in data set [6] was “activity against ovarian, liver and breast cancer”. Further, in data set [7], the toxicities result was “troublesome hepatic and renal toxicities”.

Consider `Cc1nc2cccc(Sc3ccncc3)c2c(=O)[nH]1` [Compound 7A], for which the Ki in data set [1] amounted to 38 ± 5 µM; in data set [2] (setting [9]), 2.1 ± 0.5 µM. In addition, the IC50 in data set [3] (Homo sapiens, CCRF-CEM, 120 h) was greater than 26.9 µM; in data set [4] (Homo sapiens, GC3/MTK-, 120 h) it was greater than 26.9 µM. The inhibition at 26.9 µM in data set [3] (Homo sapiens, CCRF-CEM, 120 h, @ > 26.9 μM, 5 days) is 37%. The “growth inhibition, GC3-M (TK-)” value in data set [4] (@ > 26.9 μM, 5 days) is reported as “none”. The “growth inhibition, L1210” value in data set [5] (@ 20 um, 3 days) is 68%.

Take `Cc1nc2cccc(Cn3cncc3-c3ccc([N+](=O)[O-])cc3)c2c(=O)[nH]1` [Compound 32A]: the Ki in data set [1] and in data set [2] (setting [9]) was greater than 10 µM in each case. Also, the IC50 in data set [3] (Homo sapiens, CCRF-CEM, 120 h) is 6 µM; in data set [4] (Homo sapiens, GC3/MTK-, 120 h), greater than 10 µM; in data set [5] (Mus musculus, L1210, 72 h), greater than 10 µM. The inhibition at 10 µM in data set [4] (Homo sapiens, GC3/MTK-, 120 h, @ > 10 μM, 5 days) was 30%.

As for `Cc1nc2cccc(Sc3ccccn3)c2c(=O)[nH]1` [Compound 20A], the Ki in data set [1] came out at 311 ± 99 µM; in data set [2] (setting [8]) it was 61 ± 17 µM. Besides, the IC50 in data set [3] (Homo sapiens, CCRF-CEM, 120 h) was greater than 50 µM; in data set [4] (Homo sapiens, GC3/MTK-, 120 h) it was greater than 50 µM; in data set [5] (Mus musculus, L1210, 72 h), greater than 50 µM. Moreover, the inhibition at 50 µM turned out to be 20% in data set [3] (Homo sapiens, CCRF-CEM, 120 h, @ > 50 μM, 5 days, read-out: growth inhibition, CCRF-CEM) and 40% in data set [5] (Mus musculus, L1210, 72 h, @ > 50 μM, 3 days, read-out: growth inhibition, L1210). In data set [4] (@ > 50 μM, 5 days), the “growth inhibition, GC3-M (TK-)” value is on record as “none”.

Turning to `Cc1nc2cccc(Sc3cc[n+](Cc4ccccc4)cc3)c2c(=O)[nH]1` [Compound 22A], the Ki in data set [1] stood at 9.3 ± 1.6 µM; in data set [2] (setting [9]), 1.1 ± 0.3 µM. Moreover, the “growth inhibition, CCRF-CEM” value in data set [3] (@ > 2.5 μM, 5 days) is “none”. Moreover, the IC50 was greater than 2.5 µM in data set [3] (Homo sapiens, CCRF-CEM, 120 h); greater than 2.5 µM in data set [4] (Homo sapiens, GC3/MTK-, 120 h); greater than 2.5 µM in data set [5] (Mus musculus, L1210, 72 h). The “growth inhibition, GC3-M (TK-)” value in data set [4] (@ > 2.5 μM, 5 days) is reported as “none”. This molecule also gave an inhibition at 2.5 µM in data set [5] (Mus musculus, L1210, 72 h, @ > 2.5 μM, 3 days) of 4%.
